Assay results published in patent publication US11479604B2, “Immunomodulatory peptides and methods for modulating the immune system in a subject” (Recepta Biopharma S.A., priority 2017, dated 2022).
Entries after “also recorded” stand apart in the source; their conditions may differ.

What was measured:
human mo-DC = test: Expression of MIF receptor and co-receptors by human mo-DC; assay type: cell-based
Method: CD44 expression was evaluated by BV-421-labeled monoclonal antibodies and negative controls in the figure refer to unlabeled cells.
Negative controls in the figure refer to unlabeled cells.
The parameters included in the analysis were the expression of HLA-DR (BV-510 labeled mAb), PD-L1 (PE-labeled mAb), CD44 (BV-421-labeled mAb), CD74 (FITC-labeled mAb) and CXCR4 (PE-Cy5-labeled mAb).

[1] = system: colorectal CT26 carcinoma cells; test: Subcutaneous syngeneic colorectal carcinoma model; assay type: in vivo, Balb/c mice; details: CT26 of moderate virulence (ATCC, CRL-2638); 300 μg i.p., 5 consecutive days
B16F10-Nex2 melanoma = test: Subcutaneous melanoma model; assay type: in vivo, C57BL/6 mice; details: i.p. administration
Method: Male C57BL/6 mice, 6 to 8-week-old were obtained from the Center for Development of Experimental Models (CEDEME), Federal University of Sao Paulo (UNIFESP). For the in vivo metastatic model, C57BL/6 mice received one intravenous (i.v.) injection of 2×10^5 viable B16-F10-Next melanoma cells in 100 μL. […] The control group received 100 μL PBS. Twenty-two days later, mice (minimum n=3 per group) had their lungs harvested, and the number of macroscopic melanotic nodules were counted. The Ethical Committee of Federal University of São Paulo, Project no. 1234, 2011, approved all experiments with animals, according to International guidelines. For the subcutaneous model, mice were injected with 5×10^5 tumor cells suspended in 100 μL of PBS in the right flank via the subcutaneous route. The peptide (300 μg) was solubilized in 10 μL of distilled H2O and 90 μL of PBS and injected per mouse via the intraperitoneal route. The administration of the peptide was performed in 5 alternate days initiating one day after tumor challenge. Tumor longitudinal diameter (D) and transverse diameter (d) were measured every 2 days until the tumor volume reached 3,000 mm3. Animals were sacrificed when the allowed volume was reached. Volume was calculated using the formula v=Dd^2×0.52. […]

[2] = system: CD11c+, MHC II+ bone marrow DCs; test: Marker expression of bone marrow DCs with or without Poly I:C (flow cytometry); assay type: cell-based, C57Bl6 mice; details: 60 h
Method: DCs were obtained from the bone marrow of 6 to 8-week-old C57Bl6 mice. Briefly, femora and tibiae from mice were removed and stripped of muscles and tendons; both bone ends were cut and bone marrow was flushed out with RPMI 1640 medium using a 21-gauge needle and syringe. Cell clusters were dissociated by passing through a cell strainer and 0.45 M ammonium chloride was added for red cell lysis. After washing the cell suspension twice in RPMI 1640, 10×10^6 bone marrow cells per well were cultured in non-treated tissue-culture 6-well plates with 4 ml of complete medium (RPMI 1640 supplemented with 2 mM glutamine, 10,000 U/mL penicillin, 10 mg/mL streptomycin, 50 μM 2-mercaptoethanol, 10% heat-inactivated fetal calf serum with GM-CSF (50 ng/ml). Half of the medium was removed on day 2 and new medium supplemented with GM-CSF (100 ng/ml) and warmed at 37° C. was added. The culture medium was entirely discarded on day 3 and replaced by fresh warmed medium with GM-CSF (50 ng/ml). On day 6, non-adherent cells in the culture supernatant and loosely adherent cells harvested by gentle washing with PBS were pooled and used as the starting cell source for the experiments.
For murine cell analysis, these were stained in ice-cold PBS containing BSA (0.5%) and EDTA (2 mM) using appropriate antibody-fluorophore conjugates. Multiparameter analysis was performed on a BD FACSCanto II analyzer (BD Biosciences) and analyzed with FlowJo software (Tree Star). The following antibodies were used: anti-MHC Class II, anti-CD11c, anti-CD8a, anti-CD3e, anti-CD4, anti-CD86, anti-CD40, anti-CD80, Prior to acquisition, cells were resuspended in PBS/BSA 0.5%/EDTA (2 mM).
DCs were centrifuged and washed once with MACS buffer. Cells (10^6) were resuspended in 45 μl of buffer and 5 μl of antibodies/fluorophore, CD11c APC, MHC II PE, CD80 FITC, CD86 VioBlue and CD40 PE. The samples were acquired in BD FACS Canto II using the FacsDiva software. The data were analyzed by using the FlowJo software.

[3] = system: mo-DC obtained from cancer patients' monocytes; test: Allogeneic T cell proliferation induced by cancer patients' mo-DC; assay type: cell-based, human
Method: Mo-DC were co-cultured with allogeneic lymphocytes (DC:Ly=1:30) to evaluate their ability to induce lymphocyte proliferation. This was measured by carboxyfluorescein succinimidyl ester (CFSE—Molecular Probes) dilution and activation measured by correlation among CD4/CD25 and Foxp3 expression (Clavijo-Salomon et al., 2016).
Since it is well known that mo-DC from cancer patients can be functionally biased, but are not always so, the patients were separated into two groups, according to their mo-DC ability to induce allogeneic T cell proliferation. Patients whose mo-DC induced less than 35% of the phytohemagglutinin A (PHA)-induced response constituted one group (“defective”) and those whose mo-DC induced a response higher than 35% of the PHA response, the other (“normal”).

[4] = system: human mo-DC from healthy donors; test: mo-DC generated under tolerogenic, TNF-alpha or LPS conditions, flow cytometry; assay type: cell-based
Method: To further evaluate and confirm this property, mo-DC were generated from healthy donors cells in three different conditions, all in the presence of GM-CSF (50 ng/mL) and IL-4 (50 ng/mL). To one group of cells at day 5, TGF-beta ([…]) and IL-10 (1 ug/mL) were added; to a second group, at day 5, TNF-alpha was added and to a third group, LPS (100 ng/mL) was added at day 6. The first condition is known to induce phenotypic changes in mo-DC consistent with a tolerogenic activity of the cells, while both other conditions generate mature mo-DC, with LPS representing a stronger maturation stimulus than TNF-alpha. […] At day 7 all cells were harvested and analyzed by flow cytometry.

[5] = 100 μg/ml peptide + 12.5 μg/ml Poly I:C
[6] = tolerogenic conditions (TGF-beta+IL-10)

[CARGETARATFAYWGQGC], NH2 (C-C) [Rb9]
CD74^lowCXCR4^low cell subpopulation (tSNE analysis) (human mo-DC; LPS-stimulated human mo-DC): disappearance of a CD74^lowCXCR4^low cell subpopulation
expression of the MIF co-receptor CXCR4 after treatment (human mo-DC; LPS-stimulated human mo-DC, 16.7% without peptide): 28.2%
expression of the MIF receptor CD74 after treatment (human mo-DC; LPS-stimulated human mo-DC, 56.8% without peptide): 87.5%
reduction in CD44 intensity (MFI) (human mo-DC; TGF-beta+IL-10-treated human mo-DC): 20%
frequency of CD44 positive cells after treatment (human mo-DC; TGF-beta+IL-10-treated human mo-DC, 57% without peptide): 52%
subcutaneous tumor growth [1]: significantly delayed
response of subcutaneous growing melanoma to peptide (B16F10-Nex2 melanoma): much more resistant; also recorded: resistant
CD40 expression over Poly I:C [2, 5]: stimulated CD40 over Poly I:C much like Rb9
CD86 expression over Poly I:C [2, 5]: stimulated CD86 over Poly I:C
expression of CD80 ([2]; 100 μg/ml peptide, with or without Poly I:C): similar
ability of "defective" mo-DC to induce allogeneic T cell proliferation [3]: enhanced the ability
lympho-stimulatory activity of "normal" mo-DC [3]: inhibited the lympho-stimulatory activity
number of CD11c+HLA-DR+ cells ([4]; LPS-treated cells): decreased the number of cells
percentage of CD11c+HLA-DR+ cells ([4]; TGF-beta+IL-10 group): increased the percentage of cells
percentage of CD11c+HLA-DR+ cells ([4]; TNF group): little effect
co-stimulatory potential (CD80 and CD86 double-positive cells) ([4]; mild stimulus (TNF-alpha)): partially inhibitory
maturation of mo-DC (HLA-DR+CD83+) ([4]; mild stimulus (TNF-alpha)): enhanced their maturation
co-stimulatory potential (CD80 and CD86 double-positive cells) ([4]; strongly stimulated by LPS): clearly inhibitory
maturation of mo-DC (HLA-DR+CD83+) ([4]; strongly stimulated by LPS): inhibitory
co-stimulatory potential (CD80 and CD86 double-positive cells) [4, 6]: increased their co-stimulatory potential
maturation of mo-DC (HLA-DR+CD83+) [4, 6]: increased the maturation
